# Where a name gives a salt, the structure may show the parent alone.
# Legend:
# HeHrl-cells = test: Growth/killing of Burkitt lymphoma HeHrl-cells (HeHr); type: cell-based; conditions: FIGS. 1 and 2
# Method: (§1) Burkitt lymphoma cells were obtained from professor Georg Klein, Karolinska Institutet. HeHrl-cells contain Epstein-Barr virus antigen on the surface of the cells while Raji cells contain the same antigen in the nucleus. The cells were grown in RPMI 1640 medium in the presence of 15% of fetal calf-serum, 2mM glutamine, 200 mg/1 penicillin and 200 mg/1 of streptomycine. L 1210 cells (mouse leukemia) were obtained from Dr. Miklos Degre, Rikshospitalet, Oslo. These cells were grown in RPMI 1640 medium with 10% horse serum.
# [1] = tested on: herpes simplex virus type 1; test: Virus mixed with B196, with or without dialysis, injected intracerebrally into mice (FIG. 4); type: in vivo, herpes simplex virus type 1 in mice
# Method: (§2) The virus strains were obtained from the National Bacteriological Laboratory, Stockholm. Herpes simplex type 1 and 2 were passaged intracerebrally in mice. For mouse experiments male mice 2-3 weeks old were used. Intracerebral infection was carried out by introducing the syringe 3 mm above the eye to a depth of approximately 3 mm. 0.03 ml virus suspension was injected above one eye and the substance above the other. Control groups obtained on one hand injection with physiological saline and on the other hand virus suspension.
# In the experiments shown in FIG. 4 various concentrations of B-196 were mixed with herpes simplex virus type 1 and injected intracerebrally into mice immediately at or after dialysis, at 4° C. over night. No survivors were recorded in control groups.
# osteogenic sarcoma cells = test: Growth inhibition of osteogenic sarcoma cells; type: cell-based; conditions: after 6 days test with 1 mg/1
# Method: (§3) Also osteogenic sarcoma cells and giant tumor cells (strain T4) were inhibited to 90% in their growth after 6 days test with 1 mg/1.
# Raji cells = test: Growth/killing of Burkitt lymphoma Raji-cells; type: cell-based; conditions: FIGS. 1 and 3
# Method: as §1
# [2] = tested on: giant tumor cells (strain T4); test: Growth inhibition of giant tumor cells (strain T4); type: cell-based; conditions: after 6 days test with 1 mg/1
# Method: as §3
# [3] = tested on: herpes simplex virus type 1; test: Virus inactivation after incubation with B196, infectivity by intracerebral injection in mice (FIG. 5); type: in vivo, herpes simplex virus type 1 in mice; conditions: 75 and 150 μg/ml, 4° C.
# Method: In the experiments shown in FIG. 5 two concentrations of B-196 (75 and 150 μg/ml) were incubated for different times at 4° C. with herpes simplex virus type 1 and the infectivity of the mixtures were determined by intracerebral injection in mice Control virus was incubated at 4° C. for the same period of time. No survivors were registered in these groups.
# [4] = Acute toxicity (LD50) in mice; type: in vivo; conditions: for LD50: mouse, in vivo
# Method: (§4) Experiments with mice have also been carried out. LD50 intraperitoneally is of the order 1000 mg/kg and about 100 mg/kg intravenously. […] were inocculated with 5 millions mouse ascites tumor cells intraperitoneally. 80 mg/kg of B219 were given daily for ten days. 2 mice died 22 days after treatment, 8 mice survived the whole test period (3 months). All controls were then dead. In two experiments with ascites lymphoma cells in mice a survival time of 50.9 days was obtained in the first experiment and 45.6 days in the second. The survival time for the controls , was 16.2 and 16.1 days respectively.
# [5] = tested on: Herpes simplex type 1 and 2; test: Herpes simplex virus tissue culture test (human amnion AV3-cells), cytopathogenic effect; type: cell-based, Herpes simplex virus type 1 and 2; conditions: for EC50: Human alphaherpesvirus 1, Table 1, read-out: Herpes Simplex tissue culture OL50 (concentration for 50% survival); for Herpes Simplex tissue culture OL50 (concentration for 50% survival): Table 1
# Method: as §2
# Tissue culture experiments took place with human amnion AV3-cells. The cells were grown in glass-tubes (12×100 mm) in Eagles medium containing Earles salt solution and 10% of calf-serum. Tubes with a full-grown homogenous layer of cells were infected with virus (0.15 ml) and the virus was allowed to adsorb to cells for 1 hour at 37° C. The tubes were treated with substance dissolved in medium 24 hours and 0 hour before infection. Medium containing test-substance was changed every second day throughout the experiment. In each test a series of concentrations of the test-substance was investigated simultaneously so that about 50% reduction in cytopatogenic effect could be established (ED50).
# herpes virus = conditions: literature; cited from earlier work
# ascites lymphoma cells = test: Ascites lymphoma survival experiments in mice; type: in vivo
# Method: as §4
# [6] = tested on: mouse ascites tumor cells; test: Mouse ascites tumor survival experiment; type: in vivo; conditions: 80 mg/kg daily for ten days
# Method: as §4
structure (smiles),measurement,setting,value
"CN(C)CCn1c2ccc(Br)cc2c2nc3ccccc3nc21 [Example B196, 9-bromo-6(N,N-dimethylaminoethyl)-6H-indolo(2,3-b)-quinoxaline . HCl]",sensitivity / killing of HeHrl-cells,HeHrl-cells,rapidly killed
same,survival rate,"[1]; virus mixed with B196 before injection, increases from 0",100%
same,effect on survival rate after dialysis,[1]; virus-substance mixture subjected to dialysis before injection,almost equally pronounced
same,"inhibition of growth, osteogenic sarcoma cells",osteogenic sarcoma cells,90%
same,sensitivity / killing of Raji-cells,Raji cells,rapidly killed
same,"inhibition of growth, giant tumor cells (strain T4)",[2],90%
same,inactivation of HSV1-virus vs. time,[3],virus slowly is inactivated
"Cc1cc2nc3c4cc(Br)ccc4n(CCN(C)C)c3nc2cc1C [Example 6, 2,3-dimethyl-9-bromo-6-(N,N-dimethylaminoethyl)-6H-indolo-(2,3-b)quinoxalin]",LD50,[4]; Table 1,> 250 mg/kg
same,EC50,[5],< 0.5 µg/mL
O=C(O)CP(=O)(O)O [phosphonoacetic acid],activity against herpes virus,herpes virus,active against herpes virus
"Cc1ccc2c(c1)c1nc3ccccc3nc1n2CCN(C)C [Example 10, 9-methyl-6-(N,N-dimethylaminoethyl)-6H-indolo(2,3-b)-quinoxaline-ICl]",LD50 mouse,[4]; Table 1,220 mg/kg
same,Herpes Simplex tissue culture OL50 (concentration for 50% survival),[5],0.5 µg/mL
Cc1cc2nc3c4cc(Br)ccc4n(CCN(C)C)c3nc2cc1C [Example B219],"survival time, first experiment","ascites lymphoma cells; first experiment, controls 16.2 days",50.9 days
same,"survival time, second experiment","ascites lymphoma cells; second experiment, controls 16.1 days",45.6 days
same,mice died 22 days after treatment,[6]; 5 millions ascites tumor cells intraperitoneally,2 mice
same,mice survived the whole test period,"[6]; 3 months, all controls dead",8 mice
Cc1ccc2c(c1)c1nc3ccccc3nc1n2CCN(C)C [Example 8],LD50 mouse,[4]; Table 1,> 200 mg/kg
same,Herpes Simplex tissue culture OL50 (concentration for 50% survival),[5],1 µg/mL
"CN(C)CCn1c2ccc(Cl)cc2c2nc3ccccc3nc21.Cl [Example 5, 9-chloro-6-(N,N-dimethylaminoethyl)-6H-indolo(2,3-b)-quinoxaline-HCl]",LD50 mouse,"[4]; Table 1, listed as 9",> 250 mg/kg
same,LD50,[4]; Table 1,180 mg/kg
same,EC50,[5],1 µg/mL
"Cc1ccc2c(c1)c1nc3ccccc3nc1n2CCN(C)C [Example 4, 9-methyl-6-(N,N-dimethylaminoethyl)-6H-indolo(2,3-b)quinoxaline]",LD50,[4]; Table 1,> 200 mg/kg
same,EC50,[5],1 µg/mL
O=C(O)P(=O)(O)O [phosphonoformic acid],activity against herpes virus,herpes virus,active against herpes virus

# Reference: US4990510A, “Substituted indoloquinoxalines” (Leif Lundblad, priority 1986, dated 1991)
